Laboratory results: PMC8776337, “Peptides Derived from Vascular Endothelial Growth Factor B Show Potent Binding to Neuropilin‐1” (Chembiochem, 2021)
Like-named read-outs stand apart in the source and are kept apart here. Positions of bridges follow the written chain, without caps; N, C: chain ends. Residues, ends and D or L forms follow the SMILES beside them. *: point of attachment. Palmitoyl = CCCCCCCCCCCCCCCC(=O)*; Hept6ynoyl = C#CCCCCC(=O)*

Tests used:
[1] = biological target: T1, bt‐VEGF‐A165 binding to NRP1 in HUVEC cells (Homo sapiens, UniProt O14786); experiment: Cell based binding assay, inhibition of bt-VEGF-A165 binding to NRP1; conditions: bt-VEGF-A165 4 nM
T1 construct: expressed in transfected cells
T1 sequence (O14786 22-923): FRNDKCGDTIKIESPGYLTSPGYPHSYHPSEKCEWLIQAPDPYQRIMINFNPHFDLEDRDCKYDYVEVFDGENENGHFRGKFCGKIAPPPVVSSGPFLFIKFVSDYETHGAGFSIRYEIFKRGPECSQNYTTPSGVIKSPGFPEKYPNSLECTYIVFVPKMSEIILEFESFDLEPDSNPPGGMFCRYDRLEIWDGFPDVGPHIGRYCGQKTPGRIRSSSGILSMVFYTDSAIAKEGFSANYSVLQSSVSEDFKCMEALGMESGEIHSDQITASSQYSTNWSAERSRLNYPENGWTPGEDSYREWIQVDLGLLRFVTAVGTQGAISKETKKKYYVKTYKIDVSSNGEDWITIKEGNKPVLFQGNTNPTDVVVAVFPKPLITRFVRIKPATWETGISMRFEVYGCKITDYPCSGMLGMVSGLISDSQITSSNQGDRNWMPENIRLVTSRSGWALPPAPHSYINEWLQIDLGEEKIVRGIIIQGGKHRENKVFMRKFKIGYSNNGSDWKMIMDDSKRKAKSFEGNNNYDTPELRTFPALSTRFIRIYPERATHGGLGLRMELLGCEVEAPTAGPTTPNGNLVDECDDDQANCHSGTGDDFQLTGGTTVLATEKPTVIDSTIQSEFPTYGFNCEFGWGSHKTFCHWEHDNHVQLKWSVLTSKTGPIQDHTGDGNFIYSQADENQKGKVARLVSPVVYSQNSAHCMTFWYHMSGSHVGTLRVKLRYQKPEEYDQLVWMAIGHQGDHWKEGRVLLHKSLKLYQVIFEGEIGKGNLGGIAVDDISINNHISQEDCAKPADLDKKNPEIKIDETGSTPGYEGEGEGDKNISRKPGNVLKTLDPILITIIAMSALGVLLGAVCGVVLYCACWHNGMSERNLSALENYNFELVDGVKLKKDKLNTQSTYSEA
Method: A) N‐terminal palmitoyl VEGF‐B167 derived peptide MGC0174. B) Lysine palmitoyl peptide MGC0173. C) N‐terminal palmitoyl VEGF‐A165 derived peptide MGC0171. D) Lysine VEGF‐A165 palmitoyl peptide MGC0172.
Cell based binding assay for bt‐VEGF binding to NRP1‐b1: A flat‐bottomed 96 well plate was coated with 100 μL 10 μg/mL Poly‐D‐lysine (110 μL in 10890 μL PBS) and incubated for 1 hour at R.T. DU145 cells were seeded at a concentration of 20,000 DU145 cells/well in DMEM with 10 % FBS and incubated for 4 hours. Cells were then infected with 0.3 μL per well of adenovirus expressing NRP1 (stock at 1×1012 vp/mL) and incubated for 40 hours. The media was removed followed by washing cells twice in 200 μL of PBS per well. The plate was placed on ice and 50 μL of binding medium was added per well for total binding. Next, 50 μL of 100‐fold excess (100×btVEGF‐A165) of unlabelled‐VEGF (diluted in binding medium) was added per well for non‐specific binding. Peptides (50 μL) at the indicated concentrations were diluted in binding medium and added to specified wells. bt‐VEGF (50 μL of 4 nM; diluted in binding medium) was added per well for both total and non‐specific binding and samples. The plate was incubated at 4 °C for 2 hours. The plate was then placed on ice and the medium was removed followed by gently washing the cells 3 times in 200 μL of PBS per well.
Streptavidin‐horseradish peroxidase (100 μL; dilute to the working concentration specified on the vial label using PBS+1 % BSA=1 : 200) was added to each well. The plate was sealed and incubated for 30 minutes at room temperature. Three more washes with 200 μL PBS were done. Then, 100 μL of substrate solution was added to each well (protected from light). Colour Reagent A and B were mixed together in equal volumes within 15 minutes of use. The plate was sealed and incubated for 20 minutes at room temperature. Stop solution (50 μL) was added to each well ensuring even mixing. The plate was read using Tecan Genios plate reader using a 450 nm cut‐off filter and also with a reference 595 nm cut‐off filter. Nonspecific binding was determined in the absence of NP‐1 coated on the microplate.

NRP1‐b1 = biological target: T2, NRP1‐b1 (Homo sapiens, UniProt O14786); experiment: SPR binding of peptides to immobilised NRP1-b1; conditions: for Receptor occupancy: immobilised NRP1-b1
T2 construct: the immobilized b1 domain of NRP1 (NRP1‐b1); poly-histidine (TEV-cleavable) (cleaved yes); made in house; host or cells: E. coli Rosetta (DE3)
T2 sequence (O14786 275-424 limits assumed): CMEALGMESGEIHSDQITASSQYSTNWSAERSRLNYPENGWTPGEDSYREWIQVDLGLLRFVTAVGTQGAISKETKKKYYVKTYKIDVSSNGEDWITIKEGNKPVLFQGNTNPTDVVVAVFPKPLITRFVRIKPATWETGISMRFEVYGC
Text: We then designed four additional peptides with added lipid chains (Figures 3 and 4). We investigated the effect of lipidation on the N‐terminus (MGC0171 and MGC0174) and on the side chain of a lysine in close proximity to the C‐terminus (MGC0172 and MGC0173) as shown (Figure 5). For the SPR analysis of the lipidated peptides we fitted data to a two‐state reaction model to account for the nonspecific binding of the palmitoyl side chains. Since the model assumes two binding events it provides two association (k a) and dissociation (k d) rates, and the overall equilibrium dissociation constant is calculated using the equation: KD=KD1(1+KD2), in which KD1 and KD2 are obtained as […]. The inverse of the dissociation rate corresponds to the residence time. […] The lipidated peptides were also tested for inhibition of VEGF‐A165 binding to NRP1 in a cell‐based assay (Figure 8).
Surface plasmon resonance: SPR measurements were performed using either Biacore T200 or Biacore 4000 at a constant temperature of 25 °C. All sensor chips, stock buffers, and immobilisation reagents were purchased from GE Healthcare/Cytvia and were prepared according to the manufacturer's instructions.
Chip preparation: PBS containing 0.05 % surfactant P20 was used as the running buffer during immobilisation. Proteins were immobilised onto a CM5 chip using random amine coupling following a standard procedure using the conditions specified in Table 2. A flow cell upstream of the treated flow cell was used as a reference which allowed removal of non‐specific binding to the chip.
Kinetic measurements of peptides: Peptides were injected over immobilized NRP1‐b1 for 60 s, followed by 120 or 180 s dissociation. The surface was regenerated with 1 M NaCl between injections. The SPR response curves were fit to a binding model to obtain association (ka ) and dissociation (kd ) rates which were then converted into equilibrium dissociation constant (KD ) and residence time. For a 1 : 1 binding model […] and for a two‐state binding model KD=K1(1+K2). Residence time was calculated as 1/kd .

[2] = test system: VEGF‐A165 stimulated phosphorylation in HUVECs; experiment: Western blot of VEGF-A-stimulated phosphorylation of downstream signalling proteins in HUVECs; type: cell-based, human; conditions: HUVECs pre-treated 30 min with 10 μM peptide, then VEGF-A165 10 min
Method: Figure 7 Effect of VEGF ‐ derived peptides on VEGF‐A ‐stimulated phosphorylation of downstream signalling proteins as probed by Western blot. A) VEGF‐B167 derived peptide MGC0123. B) VEGF‐A165 derived peptide MGC0124. HUVECs were pre‐treated for 30 min with peptide (10 μM) then stimulated for 10 minutes with VEGF‐A165.
Cell culture: Human umbilical vein endothelial cells (HUVECs) were cultured in t75 cm2 flasks for a maximum of 2 passages in EGM Endothelial Cell Growth Medium (#CC‐3124, Lonza, USA) supplemented with 10 % FBS. Cells were split into 6‐well‐plates and allowed to grow to ∼80 % confluence. Cells were starved by incubating in 0.5 % FBS serum EGM overnight and serum‐free EGM for 1 h directly before stimulation. Human DU145 cells for the cell‐based assay (see below) were cultured in t75 cm2 flasks in DMEM supplemented with 10 % FBS.
Immunoblotting: Cells were pre‐treated with the indicated peptide (10 μM) for 30 minutes prior to treatment with VEGF‐A165 at the indicated concentrations for 10 minutes. Cells were lysed in a solution containing Tris⋅HCl (pH 7.5, 50 mm), Triton X‐100 (1 %), NaCl (150 mm), EDTA (5 mm), complete protease inhibitor (Roche) and phosphatase inhibitors I and II (Sigma) and analysed by SDS‐PAGE with 4–12 % Bis⋅Tris gels (Nupage, Invitrogen), followed by electrotransfer onto Invitrolon PVDF membranes (Invitrogen). Membranes were blocked with non‐fat dry milk (5 % w/v) and Tween‐20 (0.1 % v/v) in tris‐buffered saline (TBS‐T), for 1 h at room temperature, before being probed with the primary antibody by overnight incubation at 4 degrees C, followed by incubation for 1 h at room temperature with a horseradish‐ peroxidase‐linked secondary antibody (Santa Cruz) and detection with the aid of ECL plus reagents (GE Healthcare, Little Chalfont, UK), by the manufacturer's protocol.

[3] = SPR, immobilised NRP1-b1, 25 °C, 1:1 model, or first residence time of the two-state model, read-out: Residence time (1/kd) (converted)

In the case of `CCCCCCCCCCCCCCCC(=O)NCCCC[C@H](NC(=O)[C@H](CC(=O)O)NC(=O)[C@@H]1CSSC[C@@H]2NC(=O)[C@H](CCCNC(=N)N)NC(=O)[C@H](CO)NC(=O)[C@H](CC(=O)O)NC(=O)[C@H]([C@@H](C)O)NC(=O)[C@H](CC(N)=O)NC(=O)[C@H](CCCCN)NC(=O)[C@@H](NC(=O)[C@H](CO)NC(C)=O)CSSC[C@H](NC(=O)[C@H]([C@@H](C)O)NC(=O)[C@H](CCCNC(=N)N)NC(=O)[C@H](CCC(=O)O)NC(=O)[C@H](CC(N)=O)NC(=O)[C@H](CC(C)C)NC(=O)[C@H](CCC(=O)O)NC(=O)[C@H](CC(C)C)NC(=O)[C@H](CCC(N)=O)NC(=O)[C@H](CCCNC(=N)N)NC(=O)[C@H](C)NC(=O)[C@H](CCCCN)NC2=O)C(=O)N[C@@H](CCCNC(=N)N)C(=O)N1)C(=O)N1CCC[C@H]1C(=O)N[C@@H](CCCNC(=N)N)C(=O)N[C@@H](CCCNC(=N)N)C(=O)O` [MGC0172] (Ac-SCKNTDSRCKARQLELNERTCRCDK(Palmitoyl)PRR-OH; disulfide 2-21, 9-23), the IC50 ([1]; 4 °C, 2 h, streptavidin-horseradish peroxidase detection, read-out: IC50, cell‐based activity (HUVECs), inhibition of bt‐VEGF‐A165 binding to NRP1) is reported as 10.4 µM, the “HS (of the inhibition curve of bt‐VEGF‐A165 binding to NRP1)” value ([1]; HUVEC cells) is reported as 1.9 and the Receptor occupancy (NRP1‐b1; SPR) is reported as 22±1%. The residence time (NRP1‐b1; [3]) was 0.123 min, the residence time (NRP1‐b1; SPR, immobilised NRP1-b1, 25 °C, two-state model, lipidated peptides, read-out: Second residence time calculated from two‐state model (converted)) was 1.99 min and the Kd (NRP1‐b1; SPR, peptide injected 60 s over NRP1-b1 immobilised on CM5 chip, 25 °C, 1:1 model for MGC0122/0123/0124, two-state model for lipidated peptides, read-out: KD, SPR binding to NRP1‐b1) was 1.22 ± 0.25 µM.
`C#CCCCCC(=O)N[C@@H](CCCNC(=N)N)C(=O)N[C@H]1CSSC[C@@H]2NC(=O)[C@H]([C@@H](C)O)NC(=O)[C@H](CC(=O)O)NC(=O)[C@@H]3CCCN3C(=O)[C@H](CC(N)=O)NC(=O)[C@H](CC(C)C)NC(=O)[C@H](CCC(=O)O)NC(=O)[C@H](CC(C)C)NC(=O)CNC(=O)[C@H](CCCNC(=N)N)NC(=O)CNC(=O)[C@H](CCC(N)=O)NC(=O)[C@H](CSSC[C@@H](C(=O)N[C@@H](CCCNC(=N)N)C(=O)N[C@@H](CCCCN)C(=O)N[C@@H](CC(C)C)C(=O)N[C@@H](CCCNC(=N)N)C(=O)N[C@@H](CCCNC(=N)N)C(=O)O)NC(=O)[C@H](CCCNC(=N)N)NC2=O)NC(=O)[C@H](CCCNC(=N)N)NC(=O)[C@H](CC(C)C)NC(=O)[C@H](Cc2ccccc2)NC(=O)[C@H](CO)NC(=O)[C@H](CCCNC(=N)N)NC(=O)[C@H](CCCNC(=N)N)NC(=O)[C@H](CCCNC(=N)N)NC1=O` [MGC0123] (Hept6ynoyl-RCRRRSFLRCQGRGLELNPDTCRCRKLRR-OH; disulfide 2-22, 10-24) was tested, and the “VEGF‐A165 dependent ERK phosphorylation” value [2] was “dramatically inhibited”, the “VEGF‐A165 dependent VEGFR2 phosphorylation” value [2] was “dramatically inhibited” and the “VEGF‐A mediated P130Cas phosphorylation” value [2] was “also inhibited”. The “VEGF‐A mediated Paxillin phosphorylation” value [2] was “also inhibited”, the Receptor occupancy (NRP1‐b1; SPR) was 54±3% and the residence time (NRP1‐b1; read-out: Residence time (1/kd)) was 0.308 min.
For `C#CCCCCC(=O)N[C@@H](CC(=O)O)C(=O)N[C@@H](CCCNC(=N)N)C(=O)N[C@@H](C)C(=O)N[C@@H](C)C(=O)N[C@H](C(=O)N1CCC[C@H]1C(=O)N[C@@H](Cc1c[nH]cn1)C(=O)N[C@@H](Cc1c[nH]cn1)C(=O)N[C@@H](CCCNC(=N)N)C(=O)N1CCC[C@H]1C(=O)N[C@@H](CCC(N)=O)C(=O)N1CCC[C@H]1C(=O)N[C@@H](CCCNC(=N)N)C(=O)O)[C@@H](C)O` [MGC0122] (Hept6ynoyl-DRAATPHHRPQPR-OH), the residence time (NRP1‐b1; [3]) was 0.0362 min.
`C#CCCCCC(=O)N[C@@H](CO)C(=O)N[C@H]1CSSC[C@@H]2NC(=O)[C@H]([C@@H](C)O)NC(=O)[C@H](CCCNC(=N)N)NC(=O)[C@H](CCC(=O)O)NC(=O)[C@H](CC(N)=O)NC(=O)[C@H](CC(C)C)NC(=O)[C@H](CCC(=O)O)NC(=O)[C@H](CC(C)C)NC(=O)[C@H](CCC(N)=O)NC(=O)[C@H](CCCNC(=N)N)NC(=O)[C@H](C)NC(=O)[C@H](CCCCN)NC(=O)[C@H](CSSC[C@@H](C(=O)N[C@@H](CC(=O)O)C(=O)N[C@@H](CCCCN)C(=O)N3CCC[C@H]3C(=O)N[C@@H](CCCNC(=N)N)C(=O)N[C@@H](CCCNC(=N)N)C(=O)O)NC(=O)[C@H](CCCNC(=N)N)NC2=O)NC(=O)[C@H](CCCNC(=N)N)NC(=O)[C@H](CO)NC(=O)[C@H](CC(=O)O)NC(=O)[C@H]([C@@H](C)O)NC(=O)[C@H](CC(N)=O)NC(=O)[C@H](CCCCN)NC1=O` [MGC0124] (Hept6ynoyl-SCKNTDSRCKARQLELNERTCRCDKPRR-OH; disulfide 2-21, 9-23) was tested, and the “VEGF‐A165 dependent ERK phosphorylation” value [2] was “little effect”, the “VEGF‐A165 dependent VEGFR2 phosphorylation” value [2] was “strongly reducing” and the “VEGF‐A mediated P130Cas phosphorylation” value [2] was “little effect”. For the same compound, the “VEGF‐A mediated Paxillin phosphorylation” value [2] was “little effect”, the Receptor occupancy (NRP1‐b1; SPR) was 84±1% and the residence time (NRP1‐b1; [3]) was 0.0117 min.
